Results from patent US20090239271A1, “FERMENTATION BROTH EXTRACTION OF K-252A” (ABBOTT LABORATORIES, priority 2005, published 2009).

Test: solubility of K-252a in various solvents at 22° C.
Assay type: physicochemical

In the case of `COC(=O)[C@@]1(O)C[C@H]2O[C@]1(C)n1c3ccccc3c3c4c(c5c6ccccc6n2c5c31)C(=O)NC4` [K-252a, methyl (1R,2S,4R)-2,4-(6,7,12,13-tetrahydro-5H-indolo[2,3-a]pyrrolo[3,4-c]carbazol-5-onediyl)-1-hydroxy-2-methyltetrahydrofuran carboxylate], the Solubility (solvent 1% water/acetone) was 9.36 mg K-252a/g solvent, the Solubility (solvent 5% acetone/methanol) was 0.90 mg K-252a/g solvent and the Solubility (solvent 10% MTHF/methanol) was 1.20 mg K-252a/g solvent. The Solubility (solvent 10% acetone/methanol) was 1.22 mg K-252a/g solvent, the Solubility (solvent 10% water/MTHF (kinetic)) was 104.07 mg K-252a/g solvent and the Solubility (solvent 10% water/MTHF (thermodynamic)) was 31.97 mg K-252a/g solvent. The Solubility (solvent 10% water/acetone) was 18.25 mg K-252a/g solvent, the Solubility (solvent 10% water/methanol) was 0.54 mg K-252a/g solvent and the Solubility (solvent 20% water/acetone) was 17.78 mg K-252a/g solvent. The Solubility (solvent 20% water/methyl acetate) was greater than 17.7 mg K-252a/g solvent, the Solubility (solvent 30% water/acetone) was 12.40 mg K-252a/g solvent and the Solubility (solvent 50% acetone/methanol) was 7.93 mg K-252a/g solvent. For the same molecule, the Solubility (solvent 75% acetone/methanol) was 18.59 mg K-252a/g solvent, the Solubility (solvent MTHF) was 27.99 mg K-252a/g solvent and the Solubility (solvent acetone) was 7.99 mg K-252a/g solvent. The Solubility (solvent methanol) was 0.72 mg K-252a/g solvent and the Solubility (solvent methyl acetate) was greater than 11.7 mg K-252a/g solvent.
